From PubChem BioAssay (NCI)
Where “and” joins values, the source holds several entries; their conditions need not be identical. Identical values can stand only once.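 All cell lines were grown in 96-well plates and treated with compound for 48 hours. GI50 = concentration required for 50% inhibition of growth. TGI marks complete inhibition of growth.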

Columns and labels:
Test in all cases: growth of human tumour cells (NCI), 48 h
[1] = test system: OVCAR-3 ovarian
[2] = test system: A498 renal
[3] = test system: UACC-62 melanoma
[4] = test system: SK-MEL-28 melanoma
[5] = test system: NCI-H23 lung
[6] = test system: KM12 colon
[7] = test system: U251 CNS
[8] = test system: HCT-116 colon
[9] = test system: SK-MEL-5 melanoma
[10] = test system: HOP-62 NSCLC

Structure (SMILES)	GI50 [1]	TGI [1]	GI50 [2]	TGI [2]	GI50 [3]	TGI [3]	GI50 [4]	TGI [4]	GI50 [5]	TGI [5]	GI50 [6]	TGI [6]	GI50 [7]	TGI [7]	GI50 [8]	TGI [8]	GI50 [9]	TGI [9]	GI50 [10]	TGI [10]
COc1ccc(-c2ccc3ncc4c(c3c2)n(-c2ccc(N3CCNCC3)c(C(F)(F)F)c2)c(=O)n4C)cn1	< 0.01 µM and 0.00596 µM	0.341 µM and 0.497 µM	< 0.01 µM and 0.00224 µM	< 0.01 µM and 0.012 µM	< 0.01 µM and 0.00599 µM	0.0269 µM and 0.0286 µM	< 0.01 µM and 0.00679 µM	0.101 µM and 0.0648 µM	< 0.0131 µM and 0.0156 µM	0.424 µM and 0.439 µM	< 0.01 µM and 0.0117 µM	0.694 µM and 0.406 µM	< 0.01 µM and 0.00869 µM	0.13 µM and 0.429 µM	< 0.0143 µM and 0.00853 µM	0.165 µM and 0.142 µM	0.0131 µM and 0.0102 µM	0.0774 µM and 0.038 µM	< 0.01 µM and 0.0119 µM	0.378 µM and 0.428 µM
Nc1ccc(-c2ccc(Nc3cc(S(=O)(=O)O)c(N)c4c3C(=O)c3ccccc3C4=O)cc2)c(S(=O)(=O)O)c1	–	> 100 µM	–	> 100 µM	–	> 100 µM	–	> 100 µM	–	> 100 µM	–	> 100 µM	–	> 100 µM	–	> 100 µM	–	> 100 µM	–	> 100 µM
CC(C)[C@](O)(C(=O)OCC1=CC[N+]2([O-])CC[C@@H](O)[C@@H]12)[C@H](C)O (stereo partly specified)	–	> 10000 µM	–	> 10000 µM	–	9920 µM	–	> 10000 µM	–	> 6000 µM	–	> 10000 µM	–	> 10000 µM	–	> 10000 µM	–	> 10000 µM	–	> 3980 µM
CCCCCCCCCCCCC/C=C1\C[C@H](O)COC1=O	–	31.7 µM	–	33.7 µM	–	26.8 µM	–	30.3 µM	–	36.4 µM	–	30.1 µM	–	32 µM	–	31.2 µM	–	26.6 µM	–	31.8 µM
CSC1=Nc2c(c(C)c(-c3ccccc3)n2CCCCl)C2=NC(=O)CN12	8.28 µM	36.2 µM	3.89 µM	15 µM	2.08 µM	11.6 µM	10.2 µM	25.4 µM	8.26 µM	46.3 µM	4.2 µM	18.7 µM	3.92 µM	16.4 µM	3.19 µM	47.7 µM	3.49 µM	14.1 µM	11 µM	63.1 µM
Cc1coc2c1CC1OC1(C)CCC1OC1(C)C2 (stereo unspecified)	–	> 100 µM	–	> 100 µM	–	> 100 µM	–	> 100 µM	–	> 100 µM	–	> 100 µM	–	> 100 µM	–	> 100 µM	–	> 100 µM	–	> 100 µM
COc1cc(CNc2nc3cc(N)cc(N)c3nc2-c2ccccc2)cc(OC)c1OC	1.15 µM	3.42 µM	6.34 µM	14.7 µM	8.09 µM	15.5 µM	8.53 µM	17.6 µM	8.64 µM	17 µM	0.478 µM	10.2 µM	1.73 µM	6.25 µM	9.84 µM	19.1 µM	0.721 µM	7.79 µM	17.1 µM	> 50 µM
C=CC(=O)NCCOc1cccc(Nc2cc(NCCCNC(=O)C3CCC3)c(Br)cn2)c1	0.836 µM	3.75 µM	0.52 µM	1.8 µM	2.58 µM	6.87 µM	1.64 µM	8.78 µM	1.07 µM	7.16 µM	0.954 µM	> 25 µM	0.851 µM	18.7 µM	0.798 µM	> 25 µM	1.39 µM	5.24 µM	0.302 µM	4.98 µM
[C-]#[O+].[C-]#[O+].[Ir].[O-]c1ccc2ccccc2c1N=Nc1ccccc1	–	17 µM	–	33.3 µM	–	29.2 µM	–	24.7 µM	–	31.7 µM	13 µM	> 44.1 µM	–	34.9 µM	–	24.7 µM	–	28.7 µM	–	> 100 µM
C/C(=C1/N=C(c2ccccc2)OC1=O)c1ccc(C)cc1	–	> 100 µM	–	> 100 µM	–	> 100 µM	–	> 100 µM	–	> 100 µM	–	> 100 µM	–	> 100 µM	–	> 100 µM	–	> 100 µM	–	> 100 µM
CC(C)(C)CC(C)(C)N(CSc1ccc(Cl)cc1)CSc1ccc(Cl)cc1	1.78 µM	4.25 µM	0.207 µM	0.863 µM	1.72 µM	3.77 µM	1.99 µM	5.74 µM	–	–	0.486 µM	4.55 µM	0.415 µM	2.09 µM	1.42 µM	5.85 µM	1.29 µM	2.61 µM	0.57 µM	10.8 µM
CC1(C(=O)NCCN(CCNC(=O)C2(C)CC3(C)CC(C)(C2)C(=O)NC3=O)CCNC(=O)C2(C)CC3(C)CC(C)(C2)C(=O)NC3=O)CC2(C)CC(C)(C1)C(=O)NC2=O (stereo unspecified)	–	> 100 µM	–	> 100 µM	–	> 100 µM	–	> 100 µM	–	> 100 µM	–	> 100 µM	–	> 100 µM	–	> 100 µM	–	–	–	> 100 µM
COc1ccc2c(c1)CC[C@@H]1[C@@H]2CC[C@]2(C)c3[nH]ncc3C[C@@H]12	8.9 µM	18.6 µM	25.9 µM	> 50 µM	17.2 µM	> 50 µM	32.1 µM	> 50 µM	–	–	10.1 µM	21.6 µM	18.2 µM	> 50 µM	12.3 µM	31.9 µM	8.16 µM	16.4 µM	24.7 µM	> 50 µM
